The target in this assay is T1, recombinant human GluN1/GluN2A receptor (Homo sapiens, UniProt Q05586+Q12879).
T1 construct: expressed in transfected cells; host or cells: HEK293, tetracycline-inducible expression
The assay can be described thus: Whole-cell patch clamp of mammalian cells (Syncropatch 384i), NMDA modulation. It counts as cell-based. Conditions: Table B-2, HEK293 cells, human GluN1/GluN2A, glutamate 1 μM / glycine 100 μM, -80 mV, peak amplitude increase; for EC50: read-out: EC50. The source says:
Whole-Cell Patch Clamp of Mammalian Cells (Syncropatch 384i (Nanion Technologies))
Whole-cell patch clamp electrophysiology was used to investigate the effects of compounds on GluN1/GluN2A N-methyl-D-aspartate (NMDA) glutamate receptors expressed in mammalian cells.
Human embryonic kidney (HEK293) cells expressing the recombinant human GluN1/GluN2A receptor under the control of a tetracycline-inducible expression system were used. Cells were maintained in Dulbecco's Modified Eagle's Medium (DMEM) with 1% glutamine, 10% Tetracycline System Approved fetal bovine serum (FBS), and NMDA inhibitors. Cells were cultured in a humidified 5% CO2 incubator at 37° C. Cells were induced with 50 ng/ml tetracycline 18-24 hours prior to testing. A cocktail of channel blockers was added to the media to prevent cell death.
Cells were 60-80% confluent at the time of harvest. Cells were detached from the flask TrypLE Enzyme Express (Thermo Fisher) at 37° C., and then cold extracellular solution was added to the flask, followed by incubation at 4° C. and then trituration of the cells. The cell solution was then placed on a shaker on the Syncropatch platform at 10° C. with a shake speed of a minimum 200 rpm for at least 30 minutes prior to testing.
Extracellular (EC) solution (in mM) —140 NaCl, 4 KCl, 5 CaCl2, 10 HEPES, 5 Glucose, pH 7.4 with NaOH. All external solutions contained 0.2% DMSO and 0.01% Kolliphor® EL (C5135, Sigma) throughout the experiment.
Intracellular (IC) solution (in mM) —120 CsF, 10 mM EGTA, 10 NaCl, 10 HEPES, 4 NaATP, 2 MgCl2, pH 7.2 with CsOH.
First, the DMSO Master Plate was prepared, in which the DMSO stock of each test compound was serially diluted in 100% DMSO to 1000× the final assay concentration. Immediately prior to assay testing, the compounds were diluted 1:100 by transferring solutions from the DMSO Mast Plate to the Intermediate Plate pre-filled with EC solution using a Biomek FX automated liquid handling system. Compounds were then diluted further with extracellular solution into two pre-incubation plates—1) compound from the Intermediate Plate was mixed with EC solution at a 1:5 dilution to create a 2× Compound Pre-Incubation Plate which was diluted a further 1:2 when added to the Syncropatch for the initial compound pre-incubation. And 2) compound from the Intermediate plate was mixed with EC solution at a 1:10 Dilution to create the 1× Compound Pre-Incubation Plate, which was used for subsequent compound pre-incubations. Finally, a Compound+Agonist Plate was prepared by mixing compound from the 2× Compound Pre-Incubation Plate with 2× concentration of co-agonists in a 1:1 ratio.
Each experiment sequentially included cell catching, sealing, whole-cell formation, liquid application, recording and data acquisition. Whole-cell patch clamp recordings were performed using multi-hole high resistance chips on the SyncroPatch 384i (Nanion Technologies). A steady-state voltage pulse at -80 mV was applied throughout the assay and a 10 second recording window was triggered around 1 second prior to application of co-agonists. Currents were leak corrected and sampled at 5 kHz.
A fast application was used, in which 5 μl co-agonist was rapidly applied at a speed of 30 μl/s and then rapidly removed from the well. To test for modulator activity, the co-agonists glutamate (1 μM) and glycine (100 μM) were applied three times to show activation reproducibility, followed by 120 seconds pre-incubation of test compound alone. The test compound was then re-applied in the presence of co-agonists two times. This was followed by application of the agonist alone, although test compound may not be fully washed from the well prior to this step. Finally, a saturating concentration of co-agonists (glutamate 100 μM/glycine 100 μM) was applied.
The voltage protocol generation data collection and analysis were performed on PatchControll384 and DataControll384. […]
In general terms: Patch clamp records ionic current or voltage across a cell membrane.

T1 sequence (Q12879 23-1464, other chains not shown): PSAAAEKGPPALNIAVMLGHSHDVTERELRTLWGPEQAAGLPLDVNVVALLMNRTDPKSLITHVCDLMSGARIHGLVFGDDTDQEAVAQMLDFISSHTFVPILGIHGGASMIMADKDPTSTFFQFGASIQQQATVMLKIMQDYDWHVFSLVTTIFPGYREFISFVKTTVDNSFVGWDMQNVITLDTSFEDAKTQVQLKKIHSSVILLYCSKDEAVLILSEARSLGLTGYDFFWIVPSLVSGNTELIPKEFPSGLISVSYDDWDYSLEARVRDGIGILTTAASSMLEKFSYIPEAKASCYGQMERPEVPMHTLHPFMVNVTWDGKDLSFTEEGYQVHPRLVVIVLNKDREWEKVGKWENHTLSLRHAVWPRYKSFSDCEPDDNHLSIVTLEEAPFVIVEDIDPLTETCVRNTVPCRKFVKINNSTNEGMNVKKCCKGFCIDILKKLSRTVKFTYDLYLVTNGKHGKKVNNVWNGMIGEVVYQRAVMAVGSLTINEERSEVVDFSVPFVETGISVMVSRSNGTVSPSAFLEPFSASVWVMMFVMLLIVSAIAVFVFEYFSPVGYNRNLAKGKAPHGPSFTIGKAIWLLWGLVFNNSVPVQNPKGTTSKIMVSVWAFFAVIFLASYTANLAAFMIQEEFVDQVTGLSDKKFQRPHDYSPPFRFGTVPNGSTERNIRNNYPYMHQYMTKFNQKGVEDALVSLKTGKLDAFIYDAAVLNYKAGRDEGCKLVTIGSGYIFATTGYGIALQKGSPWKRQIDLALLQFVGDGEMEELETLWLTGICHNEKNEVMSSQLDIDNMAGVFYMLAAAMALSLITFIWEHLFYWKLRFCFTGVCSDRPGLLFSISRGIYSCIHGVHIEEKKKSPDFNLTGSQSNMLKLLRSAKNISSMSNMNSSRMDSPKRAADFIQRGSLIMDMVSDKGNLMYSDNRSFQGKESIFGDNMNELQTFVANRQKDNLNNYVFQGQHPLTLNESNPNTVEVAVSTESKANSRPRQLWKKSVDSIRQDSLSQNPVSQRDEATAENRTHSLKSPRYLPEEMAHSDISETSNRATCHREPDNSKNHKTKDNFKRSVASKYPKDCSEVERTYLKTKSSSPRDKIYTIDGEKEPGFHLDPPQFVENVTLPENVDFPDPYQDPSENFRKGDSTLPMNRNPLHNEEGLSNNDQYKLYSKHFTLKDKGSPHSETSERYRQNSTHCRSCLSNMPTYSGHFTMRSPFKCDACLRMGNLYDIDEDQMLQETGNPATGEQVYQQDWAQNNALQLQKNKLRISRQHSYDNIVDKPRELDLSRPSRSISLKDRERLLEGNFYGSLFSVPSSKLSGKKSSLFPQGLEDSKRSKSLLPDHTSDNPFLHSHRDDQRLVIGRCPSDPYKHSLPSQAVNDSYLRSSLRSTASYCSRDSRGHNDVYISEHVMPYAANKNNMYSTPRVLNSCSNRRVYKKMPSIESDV

For orientation: Emax means the maximal effect, on the per cent scale that the assay sets. A word on the EC50: it is the midpoint of the concentration-response curve. On to `CC[C@]1(O)CC[C@@]2(C)[C@@H](CC[C@H]3[C@@H]4[C@H]5C[C@H]5[C@H]([C@H](C)CC[C@](C)(O)C(F)(F)F)[C@@]4(C)CC[C@@H]32)C1` [Compound B-5, (2S,4aS,4bS,6aR,7S,7aR,8aS,8bS,8cR,10aS)-2-ethyl-4a,6a-dimethyl-7-((2R,5S)-6,6,6-trifluoro-5-hydroxy-5-methylhexan-2-yl)octadecahydrocyclopropa[4,5]cyclopenta[1,2-a]phenanthren-2-ol], for which the maximal response (Emax) was greater than 200% and the EC50 was in the range of 100 to 500 nM.

On to `CC[C@]1(O)CC[C@@]2(C)[C@@H](CC[C@H]3[C@@H]4[C@H]5C[C@H]5[C@H]([C@H](C)CCC(C)(C)O)[C@@]4(C)CC[C@@H]32)C1` [Compound B-6], for which the Emax is greater than 200% and the EC50 was 100 to 500 nM.

As to `CC[C@]1(O)CC[C@@]2(C)[C@@H](CC[C@H]3[C@@H]4[C@H]5C[C@H]5[C@H]([C@H](C)CC[C@@](C)(O)C(F)(F)F)[C@@]4(C)CC[C@@H]32)C1` [Compound B-7, (2S,4aS,4bS,6aR,7S,7aR,8aS,8bS,8cR,10aS)-2-ethyl-4a, 6a-dimethyl-7-((2R,5R)-6,6,6-trifluoro-5-hydroxy-5-methylhexan-2-yl)octadecahydrocyclopropa[4,5]cyclopenta[1,2-a]phenanthren-2-ol], the Emax fell in the range of 100 to 200% and the EC50 was in the range of 100 to 500 nM.

Turning to `CC[C@]1(O)CC[C@@]2(C)[C@@H](CC[C@@H]3[C@@H]2CC[C@@]2(C)[C@H]3C[C@H]3C[C@]32[C@H](C)CCCC(C)(C)O)C1` [Compound B-8, (2aS,4S,6aS,6bS,8aS,8bS,9aS,10aS,10bR)-4-ethyl-8b-((R)-6-hydroxy-6-methylheptan-2-yl)-6a,8a-dimethyloctadecahydrocyclopropa[3,4]cyclopenta[1,2-a]phenanthren-4-ol], the Emax lay in the range of 100 to 200% and the EC50 was greater than 1000 nM.

Turning to `CC[C@]1(O)CC[C@@]2(C)[C@@H](CC[C@@H]3[C@@H]2CC[C@@]2(C)[C@H]3C[C@H]3C[C@]32[C@H](C)CC[C@](C)(O)C(F)(F)F)C1` [Compound B-10, (2aS,4S,6aS,6bS,8aS,8bS,9aS,10aS,10bR)-4-ethyl-6a,8a-dimethyl-8b-((2R,5S)-6,6,6-trifluoro-5-hydroxy-5-methylhexan-2-yl)octadecahydrocyclopropa[3,4]cyclopenta[1,2-a]phenanthren-4-ol], the Emax was 100 to 200% and the concentration for a half-maximal effect (EC50) was 1 to 100 nM.

Take `CC[C@]1(O)CC[C@@]2(C)[C@@H](CC[C@@H]3[C@@H]2CC[C@@]2(C)[C@H]3C[C@H]3C[C@]32[C@H](C)CC[C@@](C)(O)C(F)(F)F)C1` [Compound B-11, (2aS,4S,6aS,6bS,8aS,8bS,9aS,10aS,10bR)-4-ethyl-6a,8a-dimethyl-8b-((2R,5R)-6,6,6-trifluoro-5-hydroxy-5-methylhexan-2-yl)octadecahydrocyclopropa[3,4]cyclopenta[1,2-a]phenanthren-4-ol]: the maximal effect (Emax) fell in the range of 100 to 200% and the EC50 lay within 1 to 100 nM.

Consider `CC[C@]1(O)CC[C@@]2(C)[C@@H](CC[C@H]3[C@@H]4[C@@H](C)C[C@H]([C@H](C)CCCC(C)(C)O)[C@@]4(C)CC[C@@H]32)C1` [Compound B-12, (3S,5S,8R,9S,10S,13R,14S,15S,17R)-3-ethyl-17-((R)-6-hydroxy-6-methylheptan-2-yl)-10,13,15-trimethylhexadecahydro-1H-cyclopenta[a]phenanthren-3-ol], for which the Emax was in the range of 100 to 200% and the half-maximal effective concentration (EC50) lay in the range of 1 to 100 nM.

For the molecule `CC[C@]1(O)CC[C@@]2(C)[C@@H](CC[C@H]3[C@@H]4[C@@H](C)C[C@H]([C@H](C)CC[C@@](C)(O)C(F)(F)F)[C@@]4(C)CC[C@@H]32)C1` [Compound B-13, (3S,5S,8R,9S,10S,13R,14S,15S,17R)-3-ethyl-10,13,15-trimethyl-17-((2R,5R)-6,6,6-trifluoro-5-hydroxy-5-methylhexan-2-yl)hexadecahydro-1H-cyclopenta[a]phenanthren-3-ol], the maximal effect (Emax) was greater than 200% and the EC50 is 100 to 500 nM.

(Values after patent publication US20240368214A1, “POSITIVE NMDA-MODULATING COMPOUNDS AND METHODS OF USE THEREOF” (SAGE THERAPEUTICS, INC., priority 2021, published 2024).)
